Assay results taken from patent publication US20110207751A1, “HETEROCYCLIC COMPOUNDS AND USES AS ANTICANCER AGENTS” (priority 2010, published 2011).
Where a name gives a salt, the structure may show the parent alone.

Assays:
[1] = test system: A549 cells; assay: Cell-cycle distribution by flow cytometry; assay type: cell-based, human; details: 37 nM, 24 hours, vs DMSO only
Description: In addition, we have also tested the effect of COMPOUND O on cell-cycle using flow Cytometry. Briefly, A549 cells were seeded at a density of 400,000 cells/well in 6-well tissue culture plates. Approximately 24 hours later the cells were treated with 37 nM COMPOUND O and allowed to further incubate for 24 hours. The cells were washed in PBS, trypsinized, counted and fixed in ice-cold 70% methanol and stored at 4° C. The cells were washed with PBS, stained with propidium iodide and kept on ice until flow Cytometry analysis.

[2] = test system: MCF7 cells (human breast cancer cell line); assay: Inhibition of cell proliferation, xCelligence cell index; assay type: cell-based; details: 72 hr post compound treatment, read-out: calculated IC50
Text: (§1) The biological activity of compounds disclosed herein was monitored and profiled using the Real-Time Cell Electronic Sensing (RT-CES®) system from ACEA Biosciences, Inc. The RT-CES system utilizes cell-substrate impedance technology to monitor cellular behavior inside tissue culture wells in a microtiter plate format. The technology features in the integration of molecular and cell biology with microelectronics and is based on the electronic detection of biological assay process. […]
(§2) For measurement of cell-substrate or cell-electrode impedance using RT-CES technology, microelectrodes having appropriate geometries are fabricated onto the bottom surfaces of microtiter plate or similar device, facing into the wells. […] When there are changes to the biological status of the cells analogue electronic readout signals are measured automatically and in real time, and are converted to digital signals for processing and for analysis. In a RT-CES system, a cell index (arbitrary representation of change in impedance) is automatically derived and provided based on measured electrode impedance values. […]
(§3) To quantify cell status based on the measured cell-electrode impedance, a parameter termed Cell Index is derived. Cell Index is a quantitative measure of the status of the cells in an electrode-containing well. […]

[3] = test system: tubulin (vinblastine-binding site); assay: Spin column assay with [^3H]vinblastine; details: tubulin with [^3H]vinblastine and unlabeled competitor, 37° C. 1 h
Description: Spin column assay. […] The reaction mixtures were incubated at 37° C. for 1 h. The samples were loaded onto Illustra™ MicroSpin™ G-50 columns (GE Healthcare) previously equilibrated with the buffer solution. The columns were placed into 1.5-ml tubes and spun at 750 g for 2 min at room temperature, and radioactivity in the flow-through was analyzed by a scintillation counter.

[4] = test system: human cancer cell lines; assay: RT-CES / xCelligence profiling over the panel of cell lines; assay type: cell-based
Text: as §1, §2, §3

[5] = test system: MDA-MB-231 cells (human breast cancer cell line); assay: Inhibition of cell proliferation, xCelligence cell index; assay type: cell-based; details: 72 hr post compound treatment, read-out: calculated IC50
Text: as §1, §2, §3

IC50 [2]: 74.4 nM
IC50 towards all tested cancer cell lines ([4]; all tested cancer cell lines): low nM range
IC50 [5]: 32.4 nM
SMILES: CCc1ccc(Nc2nc(-c3c(C)nc4sccn34)cs2)cc1 [COMPOUND O, 2-(4-ethylphenyl)amino-4-(6-methylimidazo[2,1-b]thiazol-5-yl)-thiazole monohydrobromide]
cell population at G2/M phase [1]: increased significantly
amount of [^3H]vinblastine in the flow-through [3]: neither colchicine nor COMPOUND O affected the amount of [^3H]vinblastine in the flow-through
effect on the proliferation of the cancer cell lines ([4]; cell lines listed in b189 (FIGS. 4-24)): exhibited inhibitory effect
